One assay has as its target Acetylcholinesterase (Electrophorus electricus, UniProt O42275). In words: AChE and BChE Inhibition Assay. Conditions: pH 8; 25 °C. The procedure:
(§1) In vitro anti-AChE activity was performed based on the modified Ellman's method [Ellman et al., Biochem. Pharmacol., […]]. […] Each well contained 50 μL potassium phosphate buffer (KH2PO4/K2HPO4, 0.1 M, pH 8), 25 μL prepared sample as described above, 25 μL enzyme with final concentration of 0.22 U/mL in buffer. They were preincubated for 15 min at room temperature, and then […] DTNB (3 mM in buffer) was added. […] The IC50 values were determined graphically from inhibition curves (log inhibitor concentration vs. percent of inhibition). A control experiment was performed under the same conditions without inhibitor and the blank contained buffer, water, DTNB, and substrate. The described method was also used for BChE inhibition assay.

The target of assay [1] is Carboxylic ester hydrolase (Equus caballus, UniProt Q9N1N9). Put plainly: AChE and BChE Inhibition Assay. Conditions: pH 8; 25 °C. The procedure: as §1
Sequence of Carboxylic ester hydrolase (Q9N1N9 whole entry): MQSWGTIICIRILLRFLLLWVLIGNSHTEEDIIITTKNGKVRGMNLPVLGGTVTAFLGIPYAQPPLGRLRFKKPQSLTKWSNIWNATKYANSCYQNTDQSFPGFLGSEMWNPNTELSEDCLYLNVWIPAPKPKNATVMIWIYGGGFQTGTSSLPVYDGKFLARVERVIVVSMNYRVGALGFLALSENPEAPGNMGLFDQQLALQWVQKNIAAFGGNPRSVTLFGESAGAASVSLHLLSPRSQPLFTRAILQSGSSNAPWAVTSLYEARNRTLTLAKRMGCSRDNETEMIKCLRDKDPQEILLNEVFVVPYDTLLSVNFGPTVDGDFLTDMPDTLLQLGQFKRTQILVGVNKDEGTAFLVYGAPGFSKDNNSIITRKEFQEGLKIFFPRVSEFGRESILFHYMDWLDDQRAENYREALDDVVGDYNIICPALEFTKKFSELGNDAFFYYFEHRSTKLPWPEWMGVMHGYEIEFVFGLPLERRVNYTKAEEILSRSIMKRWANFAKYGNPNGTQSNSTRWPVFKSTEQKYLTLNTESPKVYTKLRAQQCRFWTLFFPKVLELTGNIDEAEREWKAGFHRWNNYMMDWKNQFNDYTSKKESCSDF

Each structure is given as a SMILES string. “And” between values parts separate entries of the source, which are not always exact repeats. Equal values may be shown once. A value given as a limit tells only on which side of the number the result lay.

Sequence of Acetylcholinesterase (O42275 whole entry): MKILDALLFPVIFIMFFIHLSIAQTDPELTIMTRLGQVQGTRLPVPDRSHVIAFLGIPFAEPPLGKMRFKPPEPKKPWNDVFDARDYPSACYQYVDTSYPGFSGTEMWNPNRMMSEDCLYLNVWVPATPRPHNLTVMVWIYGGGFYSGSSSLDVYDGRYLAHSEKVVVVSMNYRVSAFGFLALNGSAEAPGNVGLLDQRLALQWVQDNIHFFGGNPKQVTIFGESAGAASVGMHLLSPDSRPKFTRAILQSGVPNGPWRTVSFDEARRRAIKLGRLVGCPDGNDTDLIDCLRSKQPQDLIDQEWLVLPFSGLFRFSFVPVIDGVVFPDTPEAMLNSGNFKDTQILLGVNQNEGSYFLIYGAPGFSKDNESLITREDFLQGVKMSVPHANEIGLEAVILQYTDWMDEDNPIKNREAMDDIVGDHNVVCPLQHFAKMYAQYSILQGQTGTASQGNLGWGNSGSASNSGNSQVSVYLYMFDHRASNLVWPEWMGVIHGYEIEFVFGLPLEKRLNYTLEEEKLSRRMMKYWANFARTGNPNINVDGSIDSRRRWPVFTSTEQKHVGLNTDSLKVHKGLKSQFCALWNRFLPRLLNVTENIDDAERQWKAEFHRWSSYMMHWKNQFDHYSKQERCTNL

As for `COc1cccc2cc(C(=O)NCc3cn(Cc4ccccc4C)nn3)c(=O)oc12` [8-Methoxy-N-((1-(2-methylbenzyl)-1H-1,2,3-triazol-4-yl)methyl)-2-oxo-2H-chromene-3-carboxamide (6l)], the values for the IC50 (at Acetylcholinesterase; in assay [1]) were 24.1 µM and above 100 µM, respectively.

Take `COc1cccc2cc(C(=O)NCc3cn(Cc4cccc(Cl)c4Cl)nn3)c(=O)oc12` [N-((1-(2,3-dichlorobenzyl)-1H-1,2,3-triazol-4-yl)methyl)-8-methoxy-2-oxo-2H-chromene-3-carboxamide (6n)]: the IC50 on Acetylcholinesterase was 33.8 µM; in assay [1] it was above 100 µM. Take `O=C(NCc1cnnn1Cc1cccc(Cl)c1Cl)c1cc2ccccc2oc1=O` [N-((1-(2,3-dichlorobenzyl)-1H-1,2,3-triazol-5-yl)methyl)-2-oxo-2H-chromene-3-carboxamide (6h)]: the IC50 at Acetylcholinesterase is 20.2 µM; in assay [1], 67 µM. `O=C(NCc1cnnn1Cc1ccccc1Br)c1cc2ccccc2oc1=O` [N-((1-(2-bromobenzyl)-1H-1,2,3-triazol-5-yl)methyl)-2-oxo-2H-chromene-3-carboxamide (6j)]: the IC50 in assay [1] is 31 µM and > 100 µM. For `COc1cccc2cc(C(=O)NCc3cn(Cc4ccccc4Cl)nn3)c(=O)oc12` [N-((1-(2-chlorobenzyl)-1H-1,2,3-triazol-4-yl)methyl)-8-methoxy-2-oxo-2H-chromene-3-carboxamide (6m)], the IC50 against Acetylcholinesterase amounted to 15.4 µM; in assay [1] it was 96.1 µM. On to `O=C(NCc1cnnn1Cc1ccccc1Cl)c1cc2ccccc2oc1=O` [N-((1-(2-chlorobenzyl)-1H-1,2,3-triazol-5-yl)methyl)-2-oxo-2H-chromene-3-carboxamide (6f)], for which the IC50 at Acetylcholinesterase is 34 µM; in assay [1], above 100 µM. Taken in the same sequence, the figures for `Cc1ccccc1Cn1nncc1CNC(=O)c1cc2ccccc2oc1=O` [N-((1-(2-methylbenzyl)-1H-1,2,3-triazol-5-yl)methyl)-2-oxo-2H-chromene-3-carboxamide (6b)] were 78.9 µM and above 100 µM. For the compound `COc1cccc2cc(C(=O)NCc3cn(Cc4ccc(Cl)c(Cl)c4)nn3)c(=O)oc12` [N-((1-(3,4-dichlorobenzyl)-1H-1,2,3-triazol-4-yl)methyl)-8-methoxy-2-oxo-2H-chromene-3-carboxamide (6o)], the IC50 on Acetylcholinesterase is 25.5 µM; in assay [1], above 100 µM. As to `O=C(NCc1cnnn1Cc1ccc(Cl)c(Cl)c1)c1cc2ccccc2oc1=O` [N-((1-(3,4-dichlorobenzyl)-1H-1,2,3-triazol-5-yl)methyl)-2-oxo-2H-chromene-3-carboxamide (6i)], the values for the IC50 (on Acetylcholinesterase; in assay [1]) were 16.7 µM and above 100 µM, respectively. Turning to `O=C(NCc1cnnn1Cc1cccc(Cl)c1)c1cc2ccccc2oc1=O` [N-((1-(3-chlorobenzyl)-1H-1,2,3-triazol-5-yl)methyl)-2-oxo-2H-chromene-3-carboxamide (6g)], the IC50 was 92.8 µM on Acetylcholinesterase and above 0.1 µM in assay [1].

Consider `O=C(NCc1cnnn1Cc1cccc(F)c1)c1cc2ccccc2oc1=O` [N-((1-(3-fluorobenzyl)-1H-1,2,3-triazol-5-yl)methyl)-2-oxo-2H-chromene-3-carboxamide (6d)], for which the results for the IC50 (on Acetylcholinesterase; in assay [1]) were 48.1 µM and above 100 µM, respectively. Consider `O=C(NCc1cn(Cc2ccc(Br)cc2)nn1)c1cc2ccccc2oc1=O` [N-((1-(4-bromobenzyl)-1H-1,2,3-triazol-4-yl)methyl)-2-oxo-2H-chromene-3-carboxamide (6k)], for which the IC50 in assay [1] was > 100 µM and 75.3 µM. As to `O=C(NCc1cnnn1Cc1ccc(F)cc1)c1cc2ccccc2oc1=O` [N-((1-(4-fluorobenzyl)-1H-1,2,3-triazol-5-yl)methyl)-2-oxo-2H-chromene-3-carboxamide (6e)], the IC50 (against Acetylcholinesterase; in assay [1]) was above 100 µM in each case. Turning to `Cc1ccc(Cn2nncc2CNC(=O)c2cc3ccccc3oc2=O)cc1` [N-((1-(4-methylbenzyl)-1H-1,2,3-triazol-5-yl)methyl)-2-oxo-2H-chromene-3-carboxamide (6c)], the IC50 (against Acetylcholinesterase; in assay [1]) was above 100 µM in each case. On to `O=C(NCc1cnnn1Cc1ccccc1)c1cc2ccccc2oc1=O` [N-((1-benzyl-1H-1,2,3-triazol-5-yl)methyl)-2-oxo-2Hchromene-3-carboxamide (6a)], for which the IC50 (at Acetylcholinesterase; in assay [1]) was above 100 µM each time.

The IC50 is the concentration that inhibits the measured activity by half. Read a high IC50 as a need for much substance.

These data come from BindingDB's records for doi:10.1016/j.bioorg.2016.11.011 (Tehran University of Medical Sciences, 2017).
